Tests used:
[1] = test system: reniform nematode Rotylenchulus reniformis; assay: Greenhouse pot test, soil drench, reniform nematode population in soil; assay type: in vivo; conditions: 1 Kg infested soil per pot, drench in 100 mls; urea alone 150 mgs/Kg soil; NBG 1-5 mls/kg soil without urea
Method: The effect of neutralized bioglycerin (NBG), either in the presence or absence of organic nitrogen, was tested on the growth of cotton plants and parasitic nematodes. Neutralized bioglycerin (NBG) was applied at rates of 0, 1, 2, 3, 4, and 5 mls/kg soil either with or without urea (150 mgs/Kg soil of the compound to achieve about 70 mgs N/Kg soil). Applications were performed by drenching the soil in aqueous solution so that the final application volume per pot was 100 mls (which is equivalent to an acre inch of irrigation). Each pot contained 1 Kg of soil infested with the reniform nematode Rotylenchulus reniformis and there were 7 replications (pots)/treatment. Thus, for example, for the 1 ml NBG application there were 14 pots, 7 of which received each water up to 100 mls containing 1 ml NBG; the other 7 pots received each 1 ml NBG+150 mgs urea mixed in a final volume of 100 mls. The carbon:nitrogen ratios (C/N) of the combined treatments ranged from about 5.6 for the 1 ml NBG treatment to 28 for the 5 mls NBG treatment.

[2] = test system: fungi; conditions: greenhouse and field experiments; cited from earlier work
[3] = test system: nematodes; conditions: greenhouse and field experiments; cited from earlier work

NC(N)=O [Urea, urea]
effect on reniform nematode numbers [1]: suppressed

C=CC=O [acrolein, 2-propenal]
fungicidal activity [2]: fungicidal | nematocidal activity [3]: nematocidal
